Assay results as given in patent US20220089589A1, “SMALL MOLECULE DEGRADERS OF FKBP12 VIA RECRUITMENT OF VON HIPPEL-LINDAU E3 UBIQUITIN LIGASE (VHL) E3 UBIQUITIN LIGASE, AND USES IN dTAG SYSTEMS” (DANA-FARBER CANCER INSTITUTE, INC., priority 2019, published 2022).
“Also recorded” adds a separate entry of the source.

Key:
Format in all cases: cell-based
[1] = target: T1, CDK9 (Homo sapiens, UniProt P50750); assay: Immunoblotting of PATU-8902 LACZ-FKBP12^F36V clone, compound 1 and/or THAL-SNS-032 (Example 7), CDK9; settings: indicated doses of THAL-SNS-032, 24 hrs, single agent
T1 construct: endogenous in cells; host or cells: PATU-8902 LACZ-FKBP12^F36V clone
Description: (§1) PATU-8902 LACZ-FKBP12^F36V clone was plated in 6-well format, allowed to adhere overnight, and treated with DMSO and indicated doses of THAL-SNS-032 and/or 500 nM compound 1 for 24 hrs. Following treatment, cells were lysed in RIPA buffer on ice for 60 minutes. Lysates were clarified by centrifugation at 20,000×g for 10 minutes at 4° C. Immunoblotting was performed to determine changes in protein levels with an Odyssey CLx Imager. The indicated antibodies were employed including HA to monitor LACZ-FKBP12^F36V degradation, CDK9 to monitor CDK9 degradation and α-TUBULIN as a loading control.

[2] = tested on: LACZ-FKBP12^F36V; assay: Immunoblotting of PATU-8902 LACZ-FKBP12^F36V clone, compound 1 and/or THAL-SNS-032 (Example 7), HA; settings: 500 nM compound 1, 24 hrs, single agent
Description: as §1

[3] = tested on: FKBP12^F36V-KRAS^G12V; assay: Immunoblotting of PATU-8902 FKBP12^F36V-KRAS^G12V; KRAS^−/− clone (Example 8), HA; settings: 50 or 500 nM, 4 hrs
Description: (§2) PATU-8902 FKBP12^F36V-KRAS^G12V; KRAS^−/− clone was plated in 6-well format, allowed to adhere overnight, and treated with 50 nM and 500 nM dTAG molecules for 4 hrs. Following treatment, cells were lysed in RIPA buffer on ice for 60 minutes. Lysates were clarified by centrifugation at 20,000×g for 10 minutes at 4° C. Immunoblotting was performed to determine changes in protein levels with an Odyssey CLx Imager. The indicated antibodies were employed including HA to monitor FKBP12^F36V-KRAS^G12V degradation, total and phosphorylated ERK to evaluate changes in ERK signaling, total and phosphorylated AKT to evaluate changes in AKT signaling and α-TUBULIN as a loading control.

[4] = tested on: FKBP12^F36V-GFP; assay: Immunoblotting of EWS502 FKBP12^F36V-GFP cells; settings: dTAG-13 10-5000 nM, compound 1 50-5000 nM, 24 hrs
Description: (§3) EWS502 FKBP12^F36V-GFP and FKBP12^F36V-EWS/FLI; EWS/FLP^−/− cells were plated in 6-well format, allowed to adhere overnight, and treated with (10-5000 nM) dTAG-13 or (50-5000 nM) compound 1 for 24 hrs. Following treatment, cells were lysed in Cell Lysis Buffer (Cell Signaling Technology®) on ice for 60 minutes. Lysates were clarified by centrifugation at 20,000×g for 10 minutes at 4° C. Immunoblotting was performed to determine changes in protein levels upon incubation with the appropriate horseradish peroxidase-conjugated secondary antibodies. The indicated antibodies were employed including HA to monitor FKBP12^F36V-GFP or FKBP12^F36V-EWS/FLI degradation and Vinculin as a loading control.

[5] = tested on: PATU-8902 FKBP12^F36V-KRAS^G12V; KRAS^−/− clone; assay: Anti-proliferation via CellTiter-Glo, PATU-8902 FKBP12^F36V-KRAS^G12V; KRAS^−/− clone (Example 11); settings: 0.00063-20 μM, 72 hrs
Description: (§4) PATU-8902 LACZ-FKBP12^F36V or FKBP12^F36V-KRAS^G12V; KRAS^−/− clones were plated in 384-well format, allowed to adhere overnight, and treated with various dTAG molecules from compound stock plates using a JANUS® Workstation pin tool for 72 hrs. To measure cell viability, CellTilter-Glo® was added to wells for 15 minutes at r.t. and luminescence was measured on an EnVision™ 2104 Multilabel Plate Reader.

[6] = tested on: PATU-8902 LACZ-FKBP12^F36V clone; assay: Anti-proliferation via CellTiter-Glo, PATU-8902 LACZ-FKBP12^F36V control clone (Example 12); settings: 0.000063-2 μM, 72 hrs
Description: as §4, with “Cell Tilter-Glo®” for “CellTilter-Glo®”

[7] = tested on: PATU-8902 FKBP12^F36V-KRAS^G12V; KRAS^−/− clone; assay: Anti-proliferation via CellTiter-Glo, PATU-8902 FKBP12^F36V-KRAS^G12V; KRAS^−/− clone (Example 12); settings: 0.000063-2 μM, 72 hrs
Description: as §4, with “Cell Tilter-Glo®” for “CellTilter-Glo®”

[8] = tested on: PATU-8902 FKBP12^F36V-KRAS^G12V; KRAS^−/− clone; assay: Cell transformation by growth in ultra-low attachment conditions, PATU-8902 FKBP12^F36V-KRAS^G12V; KRAS^−/− clone (Example 13); settings: 0.000063-2 μM, 120 hrs
Description: as §4, with “format in ultra-low attachment conditions,” for “format,”, “form 3D-spheroids” for “adhere”, “120” for “72”, “transformation, Cell Tilter-Glo®” for “viability, CellTilter-Glo®”, “room temperature” for “r.t.”

[9] = tested on: LACZ-FKBP12^F36V; assay: Immunoblotting of PATU-8902 LACZ-FKBP12^F36V clone (Example 6); settings: 50 or 500 nM, 4 hrs
Description: as §2, with “LACZ-FKBP12^F36V” for “FKBP12^F36V-KRAS^G12V; KRAS^−/−”, “HA (hemagglutinin)” for “HA”, “LACZ-FKBP12^F36V degradation” for “FKBP12^F36V-KRAS^G12V degradation, total and phosphorylated ERK to evaluate changes in ERK signaling, total and phosphorylated AKT to evaluate changes in AKT signaling”

[10] = tested on: FKBP12^F36V-KRAS^G12V; assay: Immunoblotting of 293T^WT FKBP12^F36V-KRAS^G12V cells; settings: 50 or 500 nM, 24 hrs
Description: (§5) 293T^WT or 293T^VHL−/− FKBP12^F36V-KRAS^G12V cells were plated in 6-well format, allowed to adhere overnight, and treated with 50 nM and 500 nM dTAG molecules for 24 hrs. Following treatment, cells were lysed in RIPA buffer on ice for 60 minutes. Lysates were clarified by centrifugation at 20,000×g for 10 minutes at 4° C. Immunoblotting was performed to determine changes in protein levels with an Odyssey CLx Imager. The indicated antibodies were employed including HA to monitor FKBP12^F36V-KRAS^G12V degradation and α-TUBULIN as a loading control.

[11] = tested on: pAKT; assay: Immunoblotting of PATU-8902 FKBP12^F36V-KRAS^G12V; KRAS^−/− clone (Example 8), AKT signaling; settings: 50 or 500 nM, 4 hrs
Description: as §2

[12] = tested on: FKBP12^F36V-KRAS^G12V; assay: Immunoblotting of PATU-8902 FKBP12^F36V-KRAS^G12V; KRAS^−/− clone with carfilzomib or MLN4924 pre-treatment (Example 9); settings: 500 nM, 4 hrs
Description: PATU-8902 FKBP12^F36V-KRAS^G12V; KRAS^−/− clone was plated in 6-well format, allowed to adhere overnight, and treated with DMSO, Carflizomib (CARF) or MLN4924 (MLN) prior to treatment with DMSO or compound 1 for 4 hrs. Following treatment, cells were lysed in RIPA buffer on ice for 60 minutes. Lysates were clarified by centrifugation at 20,000×g for 10 minutes at 4° C. Immunoblotting was performed to determine changes in protein levels with an Odyssey CLx Imager. The indicated antibodies were employed including HA to monitor FKBP12^F36V-KRAS^G12V degradation and α-TUBULIN as a loading control.

[13] = tested on: FKBP12^F36V-KRAS^G12V; assay: Immunoblotting of 293T^VHL−/− FKBP12^F36V-KRAS^G12V cells; settings: 50 or 500 nM, 24 hrs
Description: as §5

[14] = tested on: pERK; assay: Immunoblotting of PATU-8902 FKBP12^F36V-KRAS^G12V; KRAS^−/− clone (Example 8), ERK signaling; settings: 50 or 500 nM, 4 hrs
Description: as §2

[15] = tested on: PATU-8902 LACZ-FKBP12^F36V clone; assay: Anti-proliferation via CellTiter-Glo, PATU-8902 LACZ-FKBP12^F36V control clone (Example 11); settings: 0.00063-20 μM, 72 hrs
Description: as §4

[16] = tested on: PATU-8902 LACZ-FKBP12^F36V clone; assay: Cell transformation by growth in ultra-low attachment conditions, PATU-8902 LACZ-FKBP12^F36V control clone (Example 13); settings: 0.000063-2 μM, 120 hrs
Description: as §4, with “format in ultra-low attachment conditions,” for “format,”, “form 3D-spheroids” for “adhere”, “120” for “72”, “transformation, Cell Tilter-Glo®” for “viability, CellTilter-Glo®”, “room temperature” for “r.t.”

[17] = tested on: FKBP12^F36V-EWS/FLI; assay: Immunoblotting of EWS502 FKBP12^F36V-EWS/FLI; EWS/FLI^−/− cells; settings: dTAG-13 10-5000 nM, compound 1 50-5000 nM, 24 hrs, EWS502 cells
Description: as §3

| SMILES | degradation of CDK9 (immunoblot) [1] | degradation of LACZ-FKBP12^F36V (immunoblot) [2] | degradation of FKBP12^F36V-KRAS^G12V (immunoblot) [3] | degradation of FKBP12^F36V-GFP (immunoblot) [4] | anti-proliferative effects / loss of cell viability (% DMSO control) [5] | anti-proliferative effects on LACZ-FKBP12^F36V control clone [6] | anti-proliferative effects / loss of cell viability (% DMSO control) [7] | loss of cell transformation (3D-spheroids, % DMSO control) [8] | degradation of LACZ-FKBP12^F36V (immunoblot) [9] | degradation of FKBP12^F36V-KRAS^G12V in 293T^WT cells (immunoblot) [10] | pAKT levels (immunoblot) [11] | degradation of FKBP12^F36V-KRAS^G12V (immunoblot) ([12]; DMSO pre-treatment) | degradation of FKBP12^F36V-KRAS^G12V after pre-treatment with Nedd8 activating enzyme inhibitor MLN4924 (MLN) ([12]; MLN4924 pre-treatment) | degradation of FKBP12^F36V-KRAS^G12V after pre-treatment with proteasome-inhibitor carfilzomib (CARF) ([12]; carfilzomib pre-treatment) | degradation of FKBP12^F36V-KRAS^G12V in 293T^VHL−/− cells (immunoblot) [13] | pERK levels (immunoblot) [14] | anti-proliferative effects on LACZ-FKBP12^F36V control clone [15] | effects on cell transformation of LACZ-FKBP12^F36V control clone [16] | degradation of FKBP12^F36V-EWS/FLI (immunoblot) [17] |
| --- | --- | --- | --- | --- | --- | --- | --- | --- | --- | --- | --- | --- | --- | --- | --- | --- | --- | --- | --- |
| CC(C)(C)c1cnc(CSc2cnc(NC(=O)C3CCN(CC(=O)NCCOCCOCCOCCNc4cccc5c4C(=O)N(C4CCC(=O)NC4=O)C5=O)CC3)s2)o1 (stereo not shown) [THAL-SNS-032] | potent degradation |  |  |  |  |  |  |  |  |  |  |  |  |  |  |  |  |  |  |
| CC[C@H](C(=O)N1CCCC[C@H]1C(=O)O[C@H](CCc1ccc(OC)c(OC)c1)c1ccccc1OCC(=O)NCCCCCCC(=O)N[C@H](C(=O)N1C[C@H](O)C[C@H]1C(=O)N[C@@H](C)c1ccc(-c2scnc2C)cc1)C(C)(C)C)c1cc(OC)c(OC)c(OC)c1 [Compound 1, (R)-3-(3,4-dimethoxyphenyl)-1-(2-(2-((7-(((S)-1-((2S,4R)-4-hydroxy-2-(((S)-1-(4-(4-methylthiazol-5-yl)phenyl)ethyl)carbamoyl)pyrrolidin-1-yl)-3,3-dimethyl-1-oxobutan-2-yl)amino)-7-oxoheptyl)amino)-2-oxoethoxy)phenyl)propyl (S)-1-((S)-2-(3,4,5-trimethoxyphenyl)butanoyl)piperidine-2-carboxylate] |  | potent degradation | potent degradation | Degradation of GFP (control) is observed; also recorded: potent degradation | Effective loss of viability; also recorded: potent anti-proliferative effects | limited effects | Effective loss of viability; also recorded: potent anti-proliferative effects | Effective loss of viability; also recorded: potent loss of cell transformation | rapid degradation; also recorded: potent degradation | potent degradation | pronounced diminished levels | potent degradation | rescued | rescued | not and did not degrade | pronounced diminished levels | limited effects | limited effects | potent degradation |
